Measured values reported in patent US20250263376A1, “(E)-N-CINNAMOYLAMINOALKANOLS WITH MELANOGENESIS INHIBITORY ACTIVITY” (Uniwersytet Jagiellonski, priority 2024, published 2025).

Legend:
[1] = test system: S. typhimurium TA1535; test: Ames microplate test, TA1535; details: without S9;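 note: bacteria exposed 90 min at 37 °C in exposure medium, then 48 h in indicator medium in 384-well plates, yellow (revertant) wells counted per condition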
Protocol: (§4) The study used the Ames microplate test (Ames MPF™ Penta 2 by Xenometrix, Allschwil, Switzerland). Growth medium, exposure medium, indicator medium, positive controls, hepatic microsomal fraction, NADP, glucose-6-phosphate, Salmonella typhimurium and Escherichia coli strains were components of the purchased experimental kit. Bacteria were grown overnight in growth medium. They were then exposed to the test compound at the appropriate concentration in exposure medium without or with the rat microsomal fraction S9 in 24-well plates for 90 min at 37° C. with shaking. Then, indicator medium was added to the wells and pipetted into 384-well plates, which were incubated for 48 hours at 37° C. without shaking. Results were assessed by counting the wells in which the medium turned yellow for each experimental condition.

[2] = test system: S. typhimurium TA98; test: Ames microplate test, TA98; type: cell-based, Salmonella typhimurium; details: without S9
Protocol: (§1) Bacteria were grown overnight in growth medium.

[3] = test system: CHO-K1 cells; test: Cytotoxicity (MTT) in CHO-K1 cells before the micronucleus test; type: cell-based, Chinese hamster; details: 24 hours
Protocol: The assay was performed using a Chinese hamster ovary cell line (CHO-K1) purchased from the American Type Culture Collection (ATCC). The cells were cultured in F-12K medium with the addition of 10% fetal bovine serum (FBS) and antibiotics (streptomycin/penicillin) in an incubator at 37° C. and 5% CO2 concentration). Before the actual micronucleus test, a cytotoxicity assessment was performed to ensure that the actual test was performed only at safe concentrations. For this purpose, cells were transferred to 96-well plates and incubated with the tested compounds for 24 hours. After this time, the MTT test was performed and cell viability was assessed in comparison to the control group (cells cultured with DMSO at the same concentration as in the case of the tested samples).

[4] = target: T1, tyrosinase from mushroom (Agaricus bisporus, UniProt C7FF04); test: Inhibition of commercial mushroom tyrosinase, substrate L-DOPA; type: biochemical; details: for inhibition at 500 µM: read-out: Tyrosinase inhibition with L-DOPA [%]
Protocol: (§2) Studies on the Inhibition of the Activity of Commercial Tyrosinase from Mushroom (Sigma: T3824)
(§3) The following substrates were used for the enzymatic reaction: L-tyrosine and L-3,4-dihyroxyphenylalanine (L-DOPA). Both substrates were used in independent experiments. According to the literature, the use of L-DOPA enables the assessment of tyrosinase diphenolase activity, and L-tyrosine—the tyrosinase monophenolase activity. The determinations were performed in 96-well plates, in each well there was placed: 170 μL or 127.5 μL of 50 mM phosphate buffer (pH=6.8) with tyrosinase (1U/well or 3U/well) and 10 μL of a solution of the tested compound in DMSO (the final concentration in the well was 500 μM, 250 μM or 125 μM). The negative control used 10 u L of pure solvent (DMSO). To initiate the reaction, an appropriate substrate was added: L-tyrosine (62.5 μL of solution in phosphate buffer) or L-DOPA (20 μL of solution in phosphate buffer). After a 25-minute incubation, the absorbance was measured at 475 nm using a microplate reader. The percentage of inhibition of tyrosinase activity was calculated using the formula: [(AC−AT)/[…], where AC—is the absorbance of the negative control, AT—is the absorbance of the sample containing the tested compound.

[5] = test system: S. typhimurium TA1537; test: Ames microplate test, TA1537; type: cell-based, Salmonella typhimurium; details: without S9
Protocol: as §1

[6] = Lipophilicity coefficient RM0 by reversed phase thin layer chromatography; type: physicochemical; details: RP-18 TLC, methanol/phosphate buffer pH=7.4
Protocol: Confirmation of the identity and purity of the obtained compounds consisted in the registration and interpretation of 1H NMR and 13C NMR spectra (the spectra were recorded using an ECZR 500 MHZ (JEOL) series FT-NMR spectrophotometer), as well as the registration and interpretation of LC-MS spectra (the spectra were recorded using Acquita UPLC system (Waters) coupled with a Waters TQD mass spectrometer). The melting point was measured using the open capillary method in the IA9300 device (Electrothermal). The lipophilicity coefficient RM0 was determined by reversed phase thin layer chromatography. In the study, aluminum plates 20×20 cm covered with modified silica gel RP-18 F254 (Merck) were used as the solid phase. The mobile phase consisted of solutions of methanol and 100 mM phosphate buffer (pH=7.4), characterized by a variable methanol content ranging from 95 to 65% (v/v). The tested compounds were dissolved in methanol to obtain solutions with a concentration of 1 mg/mL. Then, […] of the solutions prepared in this way were transferred to the starting line on aluminum plates, which were then placed in chromatographic chambers previously saturated with mobile phase vapors for at least 1 hour. All activities, including the development of chromatograms, were carried out at room temperature. After developing the chromatograms to approximately 1-2 cm from the end of the plate, the plates were dried and then the distance traveled by the tested compounds was visualized under UV light (λ=254 nm). The experiment was performed in duplicate for the specified conditions. For all samples, Rf was calculated according to the formula Rf=a/b, where a—the distance traveled by the tested compound, b—the distance traveled by the mobile phase. Then, the RM parameter was calculated for all samples according to the formula RM=log (1/Rf−1), obtaining a linear relationship between the RM values and the methanol concentration in the mobile phase. The log P coefficient was also calculated using the following computer programs: ACD/ChemSketch 2020.1.2 and ChemDraw 20.0.0.41.

[7] = test system: E. coli WP2; test: Ames microplate test, E. coli WP2; details: without S9;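 note: bacteria exposed to compound for 90 min at 37 °C in 24-well plates, then transferred with indicator medium to 384-well plates and incubated 48 h before yellow well counting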
Protocol: as §4

[8] = target: T1, tyrosinase from mushroom; test: Inhibition of commercial mushroom tyrosinase, substrate L-tyrosine; type: biochemical; details: for inhibition at 500 µM: read-out: Tyrosinase inhibition with L-tyrosine [%]
Protocol: as §2, §3

[9] = test system: B16-F10 murine melanoma cell line; test: Cytotoxicity (MTT) in B16-F10 murine melanoma cells; type: cell-based; details: 48 h
Protocol: Cytotoxicity Assessment in the B16-F10 Murine Melanoma Cell Line (ATTC CRL-6745)—Preliminary Safety Assessment for Subsequent Studies
In order to determine safe doses of compounds for testing the inhibition of melanogenesis in a murine melanoma cell line, cytotoxicity tests were performed. Cytotoxicity was determined by the colorimetric method using MTT ([3-(4,5-dimethyl-2-thiazolyl)-2,5-diphenyl-2H-tetrazolium bromide, Sigma M5655). For this purpose, cells were transferred to 96-well plates in an amount of 5000/well. After 24 h of culture in an incubator in F10-Ham medium with 1% FBS, the tested compounds at various concentrations were added to the wells together with fresh medium. DMSO was added to the medium in a negative control. The MTT test was performed after further culture for 48 h. Then the medium was removed and the formed formazan crystals were dissolved in DMSO. The absorbance was measured at 570 nm in a plate reader and the result was compared to the control (DMSO), which was 100%. The percentage of viability was calculated using the formula: [AT/AC*100], where AT is the absorbance of the test sample, AC—absorbance of the control sample.

[10] = test system: S. typhimurium TA100; test: Ames microplate test, TA100; type: cell-based, Salmonella typhimurium; details: without S9

T1 sequence (C7FF04 2-392): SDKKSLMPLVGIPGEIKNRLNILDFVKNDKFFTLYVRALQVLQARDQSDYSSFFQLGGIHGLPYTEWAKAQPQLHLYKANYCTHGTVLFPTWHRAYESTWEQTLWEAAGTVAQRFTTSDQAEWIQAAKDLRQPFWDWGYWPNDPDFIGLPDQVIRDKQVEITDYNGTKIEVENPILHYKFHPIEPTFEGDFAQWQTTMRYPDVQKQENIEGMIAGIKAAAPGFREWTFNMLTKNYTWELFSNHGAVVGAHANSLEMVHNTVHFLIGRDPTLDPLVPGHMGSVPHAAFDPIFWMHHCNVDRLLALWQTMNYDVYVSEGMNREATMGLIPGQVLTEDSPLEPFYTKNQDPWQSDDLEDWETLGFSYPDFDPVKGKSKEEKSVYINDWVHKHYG
T1 sequence (G1K3P4 entry or part of it, further chain): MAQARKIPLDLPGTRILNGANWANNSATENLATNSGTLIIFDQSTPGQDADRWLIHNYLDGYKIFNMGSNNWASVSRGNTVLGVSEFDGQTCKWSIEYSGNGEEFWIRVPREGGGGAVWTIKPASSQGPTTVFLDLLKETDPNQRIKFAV

SMILES	inhibition at 500 µM [4] [%]	RM0 [6]	inhibition at 500 µM [8] [%]	Cytotoxicity study in B16F10 cells, % viability ([9]; 150 μM) [%]	Cytotoxicity study in B16F10 cells, % viability ([9]; 200 μM) [%]	Cytotoxicity study in B16F10 cells, % viability ([9]; 250 μM) [%]	further results
CC(CO)NC(=O)/C=C/c1ccc(Cl)cc1 (stereo not drawn) [Compound A-102, (2E)-3-(4-chlorophenyl)-N-(1-hydroxypropan-2-yl)prop-2-enamide]	53 ± 1.99	2.12	75.5 ± 1.8	80.6	83.5	75.7	Increase in the number of yellow wells compared to the reference level, TA1535 ([1]; 0.5 mM): 0.55; Increase in the number of yellow wells compared to the reference level, TA1535 ([1]; 1.0 mM): 0.14; Increase in the number of yellow wells compared to the reference level, TA1535 ([1]; 2.0 mM): 0.89; Increase in the number of yellow wells compared to the reference level, TA98 ([2]; 0.5 mM): 0.24; Increase in the number of yellow wells compared to the reference level, TA98 ([2]; 1.0 mM): 0.24; Increase in the number of yellow wells compared to the reference level, TA98 ([2]; 2.0 mM): 0.35; % Viability [mean], CHO-K1 ([3]; 100 μM): 84.7%; % Viability [mean], CHO-K1 ([3]; 150 μM): 69.9%; % Viability [mean], CHO-K1 ([3]; 200 μM): 87.2%; Increase in the number of yellow wells compared to the reference level, TA1537 ([5]; 0.5 mM): 0.33; Increase in the number of yellow wells compared to the reference level, TA1537 ([5]; 1.0 mM): 0.00; Increase in the number of yellow wells compared to the reference level, TA1537 ([5]; 2.0 mM): 1.00; Increase in the number of yellow wells compared to the reference level, E. coli WP2 ([7]; 0.5 mM): 0.48; Increase in the number of yellow wells compared to the reference level, E. coli WP2 ([7]; 1.0 mM): 1.03; Increase in the number of yellow wells compared to the reference level, E. coli WP2 ([7]; 2.0 mM): 0.79; Increase in the number of yellow wells compared to the reference level, TA100 ([10]; 0.5 mM): 1.08; Increase in the number of yellow wells compared to the reference level, TA100 ([10]; 1.0 mM): 0.75; Increase in the number of yellow wells compared to the reference level, TA100 ([10]; 2.0 mM): 0.92
Cc1ccc(/C=C/C(=O)NCCCCO)cc1 [H-411/21, (2E)-N-(4-hydroxybutyl)-3-(4-methylphenyl)prop-2-enamide]	16.9 ± 7.94	2.27	20.4 ± 2.09	50.6	34.9	41.2	
O=C(/C=C/c1ccc(Cl)cc1)NCCCCCCO [H-426/21, (2E)-3-(4-chlorophenyl)-N-(6-hydroxyhexyl)prop-2-enamide]		3.02		30.3	28.2	28.3	inhibition at 125 µM ([4]; 125 μM): 30.7 ± 1.82%; inhibition at 125 µM ([8]; 125 μM): 39.9 ± 3.21%

Further lines, with some results ahead:

inhibition at 500 µM [4] [%]	RM0 [6]	inhibition at 500 µM [8] [%]	SMILES	Cytotoxicity study in B16F10 cells, % viability ([9]; 150 μM) [%]	Cytotoxicity study in B16F10 cells, % viability ([9]; 200 μM) [%]	Cytotoxicity study in B16F10 cells, % viability ([9]; 250 μM) [%]	further results
30.5 ± 1.2	1.27	21 ± 8.83	O=C(/C=C/c1ccccc1)NCCO [H-429/21, (2E)-N-(2-hydroxyethyl)-3-phenylprop-2-enamide]	86.4	79.8	80.9	
34.2 ± 2.32	1.60	27.4 ± 2.24	O=C(/C=C/c1ccccc1)NCCCO [KM-634, (2E)-N-(3-hydroxypropyl)-3-phenylprop-2-enamide]	76.1	70.5	63.3	
